Experiments:
cultured arteries = test: Cultured arteries of non-diabetic control animals exposed to TNF-α; design: species or system rat; details: pretreatment with LA
ICAM-1 = test: Aortic mRNA expression by QRT-PCR, ICAM-1; assay type: in vivo, rat; details: GK rats, LA therapy
Experimental: An expression of a number of inflammatory markers, including IL-6 and ICAM-1, were measured in control, diabetic and LA-treated diabetic vessels. The results confirmed marked elevation in the vascular expression of both […] and ICAM-1 during diabetes, as shown in FIGS. 11A and 11B. […] Aortic expression of IL-6 is shown in FIG. 11A and aortic expression of intracellular adhesion molecule (ICAM-1) is shown in FIG. 11B. Both were determined using QRT-PCR based techniques.

[1] = system: control fibroblasts (CFs); test: Cell viability after hydrogen peroxide (Cell Counting Kit-8), control fibroblasts; assay type: cell-based, rat; details: lipoic acid 500 μM, Nrf2-dependent
Source text: To determine the effect of α-lipoic acid on isolated cells from normal and diabetic rats, primary rat fibroblasts were derived from dorsal skin biopsies performed on four diabetic Coto Kakizaki rats (DFs) and four age-matched (12-14 months) and sex-matched (female) Wistar control rats (CFs). After sterilization in povidine solution, the rat skin was washed in sterile water and rinsed in 70% ethanol in phosphate-buffered saline (PBS). The epidermis and dermis were separated following overnight incubation in 0.25% Trypsin/EDTA at 4° C. Samples were washed, diced and digested for thirty minutes at 37° C. in collagenase type I (250 U/ml) dissolved in Dulbecco's modified Eagle medium (DMEM; Invitrogen) containing penicillin (100 U/ml), 2 mM L-glutamine and 26 mM HEPES. After collagenase treatment, the cells were dislodged, centrifuged and resuspended in medium supplemented with 10% fetal bovine serum. The cells were grown under standard conditions, and the medium was changed every three to four days. Control and diabetic fibroblasts were grown under normo-glycemic conditions (5.5 mM glucose) and used in experiments at passage 3 to 5.
Fibroblasts were seeded at 1×10^4 cells/well on a 96-well plate. […] Quantification of cell viability was assessed using a Cell Counting Kit-8 (Dojindo, Kumamoto, Japan). […]

HEK-499 cells = test: Viability of cells exposed to cisplatin; assay type: cell-based; details: 500 microMolar α-lipoic acid in the media prior to cisplatin at variable doses
Source text: Alpha-lipoic acid increased HEK-499 cells, which were engineered to be resistant to chemotherapies and radiotherapies by depleting Raf Kinase inhibitory protein resistance to lethal doses of cisplatin, a chemical used in cancer therapy.

Compound: O=C(O)CCCCC1CCSS1 (stereo not drawn) [LA, alpha-lipoic acid]
- TNF-α-induced abnormalities (O2− generation, caspase 3/7, DNA fragmentation, Ach-induced vasorelaxation) (cultured arteries): partially reversed
- diabetic vascular proinflammatory phenotype, aortic expression of ICAM-1 (ICAM-1): partially reversed
- protection of cell viability from hydrogen peroxide [1]: protected
- protection of cells from lethal doses of cisplatin (HEK-499 cells): significantly protected
